Reference: PubChem BioAssay (NCI)
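The compound was tested at five concentrations on cells cultured in 96-well plates, with a 48-hour exposure period. GI50 marks 50% less growth. TGI: total growth inhibition.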

Assays:
Test in all cases: DTP human tumour cell line panel, 48 h
A498 renal = test system: A498 renal
ACHN renal = test system: ACHN renal
M14 melanoma = test system: M14 melanoma
NCI-H226 lung = test system: NCI-H226 lung
OVCAR-8 ovarian = test system: OVCAR-8 ovarian
SN12C renal = test system: SN12C renal
U251 CNS = test system: U251 CNS
UACC-257 melanoma = test system: UACC-257 melanoma
NCI-H522 lung = test system: NCI-H522 lung
RXF 393 renal = test system: RXF 393 renal

SMILES	TGI (A498 renal) [µM]	TGI (ACHN renal) [µM]	TGI (M14 melanoma) [µM]	TGI (NCI-H226 lung) [µM]	TGI (OVCAR-8 ovarian) [µM]	TGI (SN12C renal) [µM]	TGI (U251 CNS) [µM]	TGI (UACC-257 melanoma) [µM]	TGI (NCI-H522 lung) [µM]	TGI (RXF 393 renal) [µM]	GI50 (A498 renal) [µM]	GI50 (ACHN renal) [µM]	GI50 (M14 melanoma) [µM]	GI50 (SN12C renal) [µM]	GI50 (UACC-257 melanoma) [µM]
Cn1c(=O)c2c(nc3n2CCC(=O)N3CCCCl)n(C)c1=O	> 100	> 100	> 100	> 100	> 100	> 100	> 100	> 100	–	–	–	–	–	–	–
c1ccc2[nH]c3c(N=NC4=NCCN4)c4ccccc4c-3nc2c1	–	> 100	20.4	23.7	9.39	> 100	19.7	36.5	17.3	14.3	–	–	–	–	–
CCCCCCCCCCCCCCCCNCC(O)CN (stereo unspecified)	41.9	–	–	25.6	12.3	12.9	6.26	23.7	33.2	8.16	–	–	–	–	–
O=C(CNc1nccs1)Nn1cnc2ccc(S(=O)(=O)Nc3nccs3)cc2c1=O	–	> 100	> 100	> 100	> 100	> 100	> 100	> 100	> 100	–	–	–	–	–	–
Cn1cc(-c2nc(-c3c[nH]c4ccncc34)cs2)c2ccccc21	3.3	2.96	3.4	–	–	3.27	–	3.55	–	–	1.86	1.6	1.74	1.76	1.96
Cc1ccc2n(c1)cc(-c1ccc(/C=N/NC(=N)N/N=C/c3ccc(-c4cn5cc(C)ccc5[n+]4C)cc3)cc1)[n+]2C	–	> 100	> 100	–	> 100	> 100	> 100	> 100	> 100	–	–	–	–	–	–
C=C1C2C[C@@H]3OC4CC5O[C@]6(CC5OC4C(C)C3OC(=O)CC3CC[C@@H]4OC5C7OC8C[C@](CCC9CC(=C)[C@H](CCC(C[C@H]1C)O2)O9)(OC7C4O3)O[C@@H]85)C[C@@H]1O[C@@]2(CC(C)[C@@H]3OC(CC(=O)CCO)C(O)C[C@@H]3O2)CC(C)[C@@H]1O6 (stereo partly specified)	–	1.71	0.17	< 0.001	0.0172	0.206	–	1.52	< 0.001	–	–	–	–	–	–
CC(=O)Oc1c2c(c(OC(C)=O)c3c1n(C(C)=O)c1ccccc1n3C(C)=O)n(C(C)=O)c1ccccc1n2C(C)=O	39	25.4	20.7	–	–	19.3	29.5	13	5.97	26.8	–	–	–	–	–
C[N+](C)(C)CCOC(=O)/C=C/c1cnc[nH]1	> 500	–	–	> 500	> 500	> 500	> 500	> 500	> 500	> 500	–	–	–	–	–
C=CC(C)(C)C1(CC(OC)OC)C(=O)N(C)c2ccccc21 (stereo unspecified)	> 25	> 25	> 25	> 25	> 25	> 25	> 25	> 25	–	> 25	–	–	–	–	–
N=c1n(CC(=O)NC23CC4CC(CC(C4)C2)C3)c2ccccc2n1CC(=O)NC12CC3CC(CC(C3)C1)C2	3.15	3.94	3.38	–	3.13	3.45	3.02	3.17	3.3	3.17	–	–	–	–	–
CCCCC(=C=C(C)CO)C1CCCN1C(=O)OC(C)(C)C (stereo unspecified)	–	68.2	35.4	33.9	37.3	31.5	31.7	32.7	29	29.4	–	–	–	–	–
CCOC(=O)CCC(NC(=O)c1ccc(Nc2nc3cc(C(F)(F)F)ccc3nc2C(=O)OCC)cc1)C(=O)OCC (stereo unspecified)	–	26.7	16.9	–	24.6	24.3	23.3	34.5	42.2	–	–	–	–	–	–
CC(C)(C)c1ccc(O)c(C(c2ccc([N+](=O)[O-])cc2)c2cc(C(C)(C)C)ccc2O)c1	–	3.3	3.16	3.51	7.82	4.02	4.81	3.41	4.32	3.66	–	–	–	–	–
COc1ccc(C(=O)c2c(-c3ccccc3NC(=O)C(F)(F)F)[nH]c3ccccc23)cc1	4.7	11.6	32.6	37.9	23.5	28.3	7.17	29.9	22.8	–	–	–	–	–	–
C/C=C/c1cc2c(c(=O)o1)C(=O)[C@@H](O)[C@H](C)O2	16.9	–	–	38.5	35	29.2	32.9	31.8	20.4	27.2	–	–	–	–	–
N#CNC(=NCc1ccccc1)NCCc1c[nH]c2ccccc12	–	> 100	> 100	> 100	> 100	> 100	> 100	> 100	–	> 100	–	–	–	–	–

SMILES	TGI (A498 renal) [µM]	TGI (ACHN renal) [µM]	TGI (M14 melanoma) [µM]	TGI (NCI-H226 lung) [µM]	TGI (OVCAR-8 ovarian) [µM]	TGI (SN12C renal) [µM]	TGI (U251 CNS) [µM]	TGI (UACC-257 melanoma) [µM]	TGI (NCI-H522 lung) [µM]	TGI (RXF 393 renal) [µM]	GI50 (A498 renal) [µM]	GI50 (ACHN renal) [µM]	GI50 (M14 melanoma) [µM]	GI50 (SN12C renal) [µM]	GI50 (UACC-257 melanoma) [µM]
O=C(NC12CC3CC(CC(C3)C1)C2)C(=O)c1c[nH]c2ccc(Br)cc12	–	> 100	31.4	41.8	87.3	61.2	49.2	> 100	> 100	6.39	–	–	–	–	–
C=CCOC(=O)c1c(C)n([O-])c2cc(Cl)c(Cl)cc2[n+]1=O	62.6	50.9	38.8	38.9	41.9	54.7	> 100	37.9	28.1	–	–	–	–	–	–
O=C1CCCCC/C1=C\c1cccc([N+](=O)[O-])c1	> 100	> 100	> 100	–	> 100	> 100	> 100	54.8	–	93.1	–	–	–	–	–
COC(=O)[C@H]1[C@@H](O)[C@@]2(O)c3c(OC)cc(OC)cc3O[C@@]2(c2ccc3c(c2)OCO3)[C@@H]1c1ccccc1	> 50	0.235	0.0414	3.23	> 50	1.46	> 50	> 50	0.741	–	–	–	–	–	–
CCn1c(-c2ccc(OC)cc2)nc2c1C(=O)c1ccccc1C2=O	–	> 100	> 100	> 100	> 100	> 100	> 100	> 100	> 100	> 100	–	–	–	–	–
CCCc1n[nH]c(=O)n1N1C(=O)C=CC1=O	> 100	–	> 100	–	–	> 100	> 100	> 100	> 100	> 100	–	–	–	–	–
NC(=O)COc1c(Br)cc(Br)cc1Br	–	> 100	> 100	> 100	> 100	> 100	> 100	> 100	> 100	–	–	–	–	–	–
O=C(/C=C/c1ccc2c(c1)OCO2)NCCc1ccco1	–	> 100	> 100	> 100	> 100	> 100	> 100	> 100	79.7	> 100	–	–	–	–	–
COc1cc(OCc2nc3cc(C(F)(F)F)ccc3nc2-c2ccccc2)cc(OC)c1OC	> 100	> 100	> 100	> 100	> 100	–	> 100	> 100	–	65.8	–	–	–	–	–
Cc1nc(N)sc1C(=O)Nc1ncn[nH]1	–	> 100	> 100	> 100	> 100	> 100	> 100	> 100	> 100	> 100	–	–	–	–	–
C[C@@H](NC(=O)[C@@H]1C[C@]1(C)CO)c1cccc2ccccc12	> 100	> 100	> 100	> 100	> 100	> 100	> 100	> 100	–	> 100	–	–	–	–	–
COc1ccc(N2CN(C)CSC2=S)cc1	> 100	> 100	> 100	–	> 100	> 100	> 100	> 100	> 100	> 100	–	–	–	–	–
C[C@]12C(=O)C=CCC1=CC[C@@H]1[C@@H]2[C@H]2CC3(O)C(=O)O[C@@]4(C)[C@H]5C[C@@]6(C)[C@@H]7[C@@]2(O)[C@]1(OC[C@H]6C(=O)O5)O[C@]734 (stereo partly specified)	> 100	> 100	> 100	–	> 100	> 100	> 100	> 100	46.2	55.7	–	–	–	–	–
N#C/C=c1/c2ccccc2n2nc3ccccc3c12	70.3	27.9	> 100	–	> 100	> 100	30.9	> 100	38	58.6	–	–	–	–	–
Clc1ccc2nc3n[nH]c(Cl)c3nc2c1	> 100	> 100	> 100	–	> 100	> 100	> 100	> 100	–	> 100	–	–	–	–	–
Brc1c2nc3ccccc3nc2n2ccc3ccccc3c12	–	> 100	> 100	–	> 100	> 100	> 100	> 100	> 100	–	–	–	–	–	–
N=S(=O)(c1ccccc1)c1ccccc1	> 100	> 100	> 100	> 100	> 100	> 100	> 100	> 100	> 100	–	–	–	–	–	–
